In ChEMBL document CHEMBL3886685, “Nitrogen-containing bicyclic aromatic heterocyclic compound” (2016):

Biological target: Cathepsin S (Homo sapiens, UniProt P25774)
Experiment: Inhibition Assay: 5 μL of a human cathepsin S enzyme (R&D1183-CY-010) was added to a 96-well plate so as to be 20 ng/well. Next, 10-fold dilution of the test compound (a 10 mM DMSO solution) was serially performed with a buffer solution for assay (a solution of 50 mM sodium methoxide, 250 mM sodium chloride and 5 mM dithiothreitol (DTT), adjusted to pH=4.5 with 1 N hydrochloric acid) six times such that the final concentration becomes 0.1 nM to 10 μM then, 20 μL of each of the solutions was added to the wells (the final DMSO concentration was 0.1%), and 25 μL of synthetic substrate VVR-AMC (3211-V manufactured by PEPTIDE […], INC.) was added thereto such that the final concentration becomes 40 μM, thereby starting a enzyme reaction. A fluorescence intensity (an excitation wavelength: 380 nm and a fluorescent wavelength: 460 nm) was measured at 37° C. for 10 minutes immediately after the start of the reaction using a fluorescence spectrophotometer (SPECTRA MAX GEMINI, manu

Cathepsin S, sequence (P25774 whole entry): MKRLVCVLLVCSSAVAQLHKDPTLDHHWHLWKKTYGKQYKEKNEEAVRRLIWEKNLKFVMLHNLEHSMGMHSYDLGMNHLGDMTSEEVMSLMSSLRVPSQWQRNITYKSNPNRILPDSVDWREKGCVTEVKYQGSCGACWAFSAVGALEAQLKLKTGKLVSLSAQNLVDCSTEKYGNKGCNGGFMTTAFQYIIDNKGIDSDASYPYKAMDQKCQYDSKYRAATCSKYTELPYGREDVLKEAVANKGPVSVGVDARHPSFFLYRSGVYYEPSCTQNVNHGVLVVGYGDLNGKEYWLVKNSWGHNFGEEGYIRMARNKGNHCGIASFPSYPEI

In the case of Cn1ccc2c(-c3ccc(OCCC4CCNC4)c(C(F)(F)F)c3)nc(C#N)nc21 (stereo unspecified), the IC50 is reported as 1.3 nM.
